Measurements reported in US10285989B2, “Pyrimidinone amide compounds as PDE2 inhibitors” (Merck Sharp & Dohme Corp., priority 2015, dated 2019).
Like-named read-outs stand apart in the source and are kept apart here.

What was measured:
human PDE2A1 = human PDE2A1 (Homo sapiens (Human), UniProt O00408); assay: PDE2 IMAP FP inhibition assay, human PDE2A1 (selectivity panel format); format: biochemical
In short: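 IMAP fluorescence polarization assay; substrate 50 nM FAM-cAMP with 1000 nM cGMP, enzyme at ~20% conversion, in 10 mM Tris pH 7.2, 10 mM MgCl2, 1 mM DTT, 0.01% Tween-20. 60 min room temperature, stopped with IMAP binding reagent, 1 h, then parallel/perpendicular fluorescence read.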

Rhesus PDE2A3 = Rhesus PDE2A3 (Macaca mulatta, UniProt B3VTJ2); assay: PDE2 fluorescence polarization (IMAP FP) inhibition assay, rhesus PDE2A3; format: biochemical, rhesus macaque
Rhesus PDE2A3, sequence (B3VTJ2 1-941): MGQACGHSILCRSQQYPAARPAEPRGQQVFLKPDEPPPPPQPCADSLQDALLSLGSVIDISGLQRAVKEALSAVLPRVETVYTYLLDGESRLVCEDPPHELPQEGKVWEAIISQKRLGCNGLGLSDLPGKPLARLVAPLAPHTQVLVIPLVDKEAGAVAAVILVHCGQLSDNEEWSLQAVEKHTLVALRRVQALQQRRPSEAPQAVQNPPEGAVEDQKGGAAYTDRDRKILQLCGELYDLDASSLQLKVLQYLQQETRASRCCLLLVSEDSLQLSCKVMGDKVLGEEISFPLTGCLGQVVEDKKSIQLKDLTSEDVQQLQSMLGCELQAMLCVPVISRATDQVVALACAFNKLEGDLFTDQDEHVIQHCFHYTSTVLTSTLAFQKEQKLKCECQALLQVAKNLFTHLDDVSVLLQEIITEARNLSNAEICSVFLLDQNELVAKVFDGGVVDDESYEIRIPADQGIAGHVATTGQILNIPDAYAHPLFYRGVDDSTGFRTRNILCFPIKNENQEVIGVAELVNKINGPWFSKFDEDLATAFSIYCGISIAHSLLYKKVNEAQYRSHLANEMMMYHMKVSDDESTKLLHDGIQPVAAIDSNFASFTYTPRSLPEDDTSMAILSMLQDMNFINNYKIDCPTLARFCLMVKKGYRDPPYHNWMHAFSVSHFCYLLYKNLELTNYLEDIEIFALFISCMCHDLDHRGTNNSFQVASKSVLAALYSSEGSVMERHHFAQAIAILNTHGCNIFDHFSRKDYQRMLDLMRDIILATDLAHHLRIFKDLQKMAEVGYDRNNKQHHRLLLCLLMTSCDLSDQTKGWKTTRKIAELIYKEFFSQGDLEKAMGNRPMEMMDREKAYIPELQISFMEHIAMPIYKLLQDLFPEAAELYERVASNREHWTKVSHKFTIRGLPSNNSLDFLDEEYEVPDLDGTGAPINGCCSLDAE
Protocol: A Labcyte Echo 555 (Labcyte, Sunnyvale, Calif.) is used to dispense 200 nL from each well of the titration plate to the 384 well assay plate. Ten microliters of a solution of enzyme (1/2000 final dilution from aliquots; sufficient to produce 20% substrate conversion) was added to the assay plate. Next 10 uL of a separate solution of the substrate FAM-labeled cAMP (50 nM final concentration product # R^7506 from Molecular Devices) and the activator cGMP (1 uM final concentration), prepared in the assay buffer (10 mM Tris HCl, pH 7.2, 10 mM MgCl2, 0.05% NaN3 0.01% Tween-20, and 1 mM DTT) was added to the assay plate and shaken to mix. The reaction is allowed to proceed at room temperature for 60 minutes. A binding solution is then made from the kit components, comprised of 80% Solution A, 20% Solution B and binding reagent at a volume of 1/600 the total binding solution. The enzymatic reaction is stopped by addition of 60 μL of the binding solution to each well of the assay plates and the plates are sealed and shaken for 30 seconds. The plate was incubated at room temperature for at least one hour prior to determining the fluorescence polarization (FP). The parallel and perpendicular fluorescence of each well of the plate was measured using a Tecan Genios Pro plate reader (Tecan, Switzerland) or Perkin Elmer EnVision™ plate reader (Waltham, Mass.). Fluorescence polarization (mP) was calculated from the parallel (S) and perpendicular (P) fluorescence of each sample well and the analogous values for the median control well, containing only substrate (So and Po), using the following equation: Polarization (mP)=1000*(S/So−P/Po)/(S/So+P/Po).
Dose-inhibition profiles for each compound were characterized by fitting the mP data to a four-parameter equation given below.
An apparent (KM) for FAM-labeled cAMP of ˜10 uM was used.

[1] = Lab A, read-out: Human PDE2 Ki (nM) - Lab A
[2] = Lab A, read-out: Rhesus PDE2 Ki (nM) - Lab A
[3] = Lab B, read-out: Human PDE2 Ki (nM) - Lab B
[4] = Lab B, read-out: Rhesus PDE2 Ki (nM) - Lab B

human PDE2A1, sequence (O00408 other isoform, or with tags, fused parts or gaps): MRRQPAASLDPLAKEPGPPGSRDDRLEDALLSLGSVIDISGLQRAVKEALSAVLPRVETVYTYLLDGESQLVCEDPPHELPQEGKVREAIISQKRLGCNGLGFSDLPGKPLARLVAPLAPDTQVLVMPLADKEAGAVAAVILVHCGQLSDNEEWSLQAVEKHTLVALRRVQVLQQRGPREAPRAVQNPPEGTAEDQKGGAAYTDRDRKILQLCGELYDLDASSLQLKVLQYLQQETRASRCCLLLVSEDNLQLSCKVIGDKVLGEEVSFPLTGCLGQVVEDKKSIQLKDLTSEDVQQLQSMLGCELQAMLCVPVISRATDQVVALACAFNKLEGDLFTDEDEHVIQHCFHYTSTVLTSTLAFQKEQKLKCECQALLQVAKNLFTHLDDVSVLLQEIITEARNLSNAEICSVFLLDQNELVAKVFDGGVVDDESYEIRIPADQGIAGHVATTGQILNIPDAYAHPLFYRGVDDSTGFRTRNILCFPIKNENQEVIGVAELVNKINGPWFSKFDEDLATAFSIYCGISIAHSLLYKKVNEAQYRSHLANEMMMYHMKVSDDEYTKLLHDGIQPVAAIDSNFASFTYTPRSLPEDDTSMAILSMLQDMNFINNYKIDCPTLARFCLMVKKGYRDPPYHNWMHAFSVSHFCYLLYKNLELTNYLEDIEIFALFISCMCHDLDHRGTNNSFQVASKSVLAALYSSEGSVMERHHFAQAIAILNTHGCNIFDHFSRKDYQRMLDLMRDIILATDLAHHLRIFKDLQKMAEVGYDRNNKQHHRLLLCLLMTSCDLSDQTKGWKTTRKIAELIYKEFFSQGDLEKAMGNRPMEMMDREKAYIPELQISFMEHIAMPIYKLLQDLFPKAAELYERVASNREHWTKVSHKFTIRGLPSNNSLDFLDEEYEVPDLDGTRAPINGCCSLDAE

Row | Compound | Ki (human PDE2A1; [1]) [nM] | Ki (Rhesus PDE2A3; [2]) [nM] | Ki (human PDE2A1; [3]) [nM] | Ki (Rhesus PDE2A3; [4]) [nM]
1 | O=C(N[C@@H](c1ccc(OC(F)(F)F)c(F)c1)C1CC1)c1cc(=O)[nH]c(N2CCCC2)n1 [Example 25, N-{(R)-cyclopropyl[3-fluoro-4-(trifluoromethoxy)phenyl]methyl}-6-oxo-2-pyrrolidin-1-yl-1,6-dihydropyrimidine-4-carboxamide] | 0.37 | 0.85 |  | 
2 | C[C@@H](NC(=O)c1cc(=O)[nH]c(N2CCCC2)n1)c1ccc(OC(F)(F)F)cc1 [Example 28, 6-oxo-2-pyrrolidin-1-yl-N-{(1R)-1-[4-(trifluoromethoxy)phenyl]ethyl}-1,6-dihydropyrimidine-4-carboxamide] | 0.45 | 1.3 |  | 
3 | CC[C@@H](NC(=O)c1cc(=O)[nH]c(N2CCCC2)n1)c1ccc(SC(F)(F)F)c(F)c1 [Example 29, N-[(1R)-1-{3-fluoro-4-[(trifluoromethyl)sulfanyl]phenyl}propyl]-6-oxo-2-pyrrolidin-1-yl-1,6-dihydropyrimidine-4-carboxamide] | 0.22 | 0.56 |  | 
4 | C[C@@H](NC(=O)c1cc(=O)[nH]c(N(C)C)n1)c1cc(F)c(C(F)(F)F)cc1F [Example 36, N-{(1R)-1-[2,5-difluoro-4-(trifluoromethyl)phenyl]ethyl}-2-(dimethylamino)-6-oxo-1,6-dihydropyrimidine-4-carboxamide] |  |  | 7.7 | 4.9
5 | CC(C)C(C)(NC(=O)c1cc(=O)[nH]c(N(C)C)n1)c1ccc(S(F)(F)(F)(F)F)cc1 (centres unmarked) [Example 39, 2-(dimethylamino)-N-{1,2-dimethyl-1-[4-(pentafluoro-λ^6-sulfanyl)phenyl]propyl}-6-oxo-1,6-dihydropyrimidine-4-carboxamide] |  |  | 12 | 8.7
6 | Cc1cc(C(F)(F)F)ccc1C(C)(C)NC(=O)c1cc(=O)[nH]c(N(C)C)n1 [Example 78, 2-(dimethylamino)-N-{1-methyl-1-[2-methyl-4-(trifluoromethyl)phenyl]ethyl}-6-oxo-1,6-dihydropyrimidine-4-carboxamide] |  |  | 2.2 | 2.3
7 | CN(C)c1nc(C(=O)NC(C)(C)c2ccc(C(F)(F)F)cc2F)cc(=O)[nH]1 [Example 82, 2-(dimethylamino)-N-{1-[2-fluoro-4-(trifluoromethyl)phenyl]-1-methylethyl}-6-oxo-1,6-dihydropyrimidine-4-carboxamide] |  |  | 2.5 | 2
8 | C[C@@H](NC(=O)c1cc(=O)[nH]c(N(C)C)n1)c1ccc(C(F)(F)F)c(F)c1F [Example 84, N-{(1R)-1-[2,3-difluoro-4-(trifluoromethyl)phenyl]ethyl}-2-(dimethylamino)-6-oxo-1,6-dihydropyrimidine-4-carboxamide] |  |  | 2.5 | 3.5
9 | CC(C)[C@@H](NC(=O)c1cc(=O)[nH]c(N(C)C)n1)c1ccc(OC(F)(F)F)c(Cl)c1 [Example 86, N-{(1R)-1-[3-chloro-4-(trifluoromethoxy)phenyl]-2-methylpropyl}-2-(dimethylamino)-6-oxo-1,6-dihydropyrimidine-4-carboxamide] |  | 0.54 | 1.7 | 2.1
10 | CN(C)c1nc(C(=O)NC(C)(C)c2ccc(S(F)(F)(F)(F)F)cc2)cc(=O)[nH]1 [Example 118, 2-(Dimethylamino)-N-{1-methyl-1-[4-(pentafluoro-λ^6-sulfanyl)phenyl]ethyl}-6-oxo-1,6-dihydropyrimidine-4-carboxamide] |  |  | 140 | 224
11 | C[C@@H](NC(=O)c1cc(=O)[nH]c(Nc2ccccn2)n1)c1ccc(C(F)(F)F)cc1 [Example 136, 6-oxo-2-(pyridin-2-ylamino)-N-{(1R)-1-[4-(trifluoromethyl)phenyl]ethyl}-1,6-dihydropyrimidine-4-carboxamide] | 491 | 610 |  | 
12 | CCN(CC)c1nc(C(=O)N[C@H](C)c2ccc(C(F)(F)F)cc2)cc(=O)[nH]1 [Example 142, 2-(diethylamino)-6-oxo-N-{(1R)-1-[4-(trifluoromethyl)phenyl]ethyl}-1,6-dihydropyrimidine-4-carboxamide] | 16 | 23 |  | 

Next, values leading:

Row | Ki (human PDE2A1; [1]) [nM] | Ki (Rhesus PDE2A3; [2]) [nM] | Ki (human PDE2A1; [3]) [nM] | Ki (Rhesus PDE2A3; [4]) [nM] | Compound
13 |  |  | 3.6 | 3.4 | CN(C)c1nc(C(=O)NC2(c3ccc(C(C)(C)C)cc3)CC2)cc(=O)[nH]1 [Example 46, N-[1-(4-tert-butylphenyl)cyclopropyl]-2-(dimethylamino)-6-oxo-1,6-dihydropyrimidine-4-carboxamide]
14 |  |  | 2.4 | 2.3 | C[C@@H](NC(=O)c1cc(=O)[nH]c(N(C)C)n1)c1ccc(OC(F)(F)F)cc1F [Example 83, 2-(dimethylamino)-N-{(1R)-1-[2-fluoro-4-(trifluoromethoxy)phenyl]ethyl}-6-oxo-1,6-dihydropyrimidine-4-carboxamide]
15 |  | 2 | 3.6 | 4.9 | CN(C)c1nc(C(=O)N[C@@H](c2ccc(OC(F)(F)F)c(Cl)c2)C2CC2)cc(=O)[nH]1 [Example 85, N-[(R)-[3-chloro-4-(trifluoromethoxy)phenyl](cyclopropyl)methyl]-2-(dimethylamino)-6-oxo-1,6-dihydropyrimidine-4-carboxamide]
16 |  |  | 2.1 | 2.5 | C[C@H](NC(=O)c1cc(=O)[nH]c(N(C)C)n1)c1ccc(S(F)(F)(F)(F)F)cc1F [Example 117, (S)-2-(dimethylamino)-N-(1-(4-(pentafluorothio)-2-fluorophenyl)ethyl)-6-oxo-1,6-dihydropy-rimidine-4-carboxamide]
17 | 30 | 60 |  |  | C[C@@H](NC(=O)c1cc(=O)[nH]c(N2CCOCC2)n1)c1ccc(C(F)(F)F)cc1 [Example 132, 2-morpholin-4-yl-6-oxo-N-{(1R)-1-[4-(trifluoromethyl)phenyl]ethyl}-1,6-dihydropyrimidine-4-carboxamide]
18 | 144 | 272 |  |  | C[C@@H](NC(=O)c1cc(=O)[nH]c(N)n1)c1ccc(C(F)(F)F)cc1 [Example 134, 2-amino-6-oxo-N-{(1R)-1-[4-(trifluoromethyl)phenyl]ethyl}-1,6-dihydropyrimidine-4-carboxamide]
19 | 56 | 109 |  |  | C[C@@H](NC(=O)c1cc(=O)[nH]c(NC2CCCC2)n1)c1ccc(C(F)(F)F)cc1 [Example 139, 2-(cyclopentylamino)-6-oxo-N-{(1R)-1-[4-(trifluoromethyl)phenyl]ethyl}-1,6-dihydropyrimidine-4-carboxamide]
20 | 51 | 54 |  |  | C[C@@H](NC(=O)c1cc(=O)[nH]c(NC2CC2)n1)c1ccc(C(F)(F)F)cc1 [Example 140, 2-(cyclopropylamino)-6-oxo-N-{(1R)-1-[4-(trifluoromethyl)phenyl]ethyl}-1,6-dihydropyrimidine-4-carboxamide]
21 | 6 | 10.3 |  |  | CCN(C)c1nc(C(=O)N[C@H](C)c2ccc(C(F)(F)F)cc2)cc(=O)[nH]1 [Example 141, 2-[ethyl(methyl)amino]-6-oxo-N-{(1R)-1-[4-(trifluoromethyl)phenyl]ethyl}-1,6-dihydropyrimidine-4-carboxamide]
22 |  | 0.48 | 0.42 | 0.51 | CC(C)[C@@H](NC(=O)c1cc(=O)[nH]c(N(C)C)n1)c1ccc(OC(F)(F)F)c(F)c1 [Example 149, 2-(dimethylamino)-N-{(1R)-1-[3-fluoro-4-(trifluoro-methoxy)phenyl]-2-methylpropyl}-6-oxo-1,6-dihydropyrimidine-4-carboxamide]
